Reference: patent US6342765B1, “Imidazole derivatives and their use as farnesyl protein transferase inhibitors” (AstraZeneca UK Limited, priority 1997, dated 2002)

Assays:
[1] = molecular target: T1, Farnesyl protein transferase (FPT) (Homo sapiens, UniProt P49354+P49356); experiment: In-vitro farnesyl protein transferase assay (farnesylation of Ki-ras with radiolabelled farnesyl pyrophosphate); type: biochemical; settings: read-out: IC50 in the above test
T1 construct: partially purified from human placenta; from tissue; host or cells: human placenta
Procedure: The following stock solutions were used and the assays were conducted in 96 well plates: TRIS Buffer (500 mM TRIS, 50 mM MgCl2.6H2O, pH=8.0); Farnesyl pyrophosphate (6.4 mg/ml); Aprotinin (1.9 mg/ml); Ki-ras (0.5 mg/ml, stored at −80° C.); Acid ethanol (850 ml absolute ethanol+150 ml concentrated HCl).
Farnesyl protein transferase (FPT) was partially purified from human placenta by t ammonium sulphate fractionation followed by a single Q-Sepharose™ (Pharmacia, Inc) anion exchange chromatography essentially as described by Ray and Lopez-Belmonte (Ray K P and Lopez-Belmonte J (1992) Biochemical Society Transactions 20 494-497). The substrate for FPT was Kras (CVIM C-terminal sequence). The cDNA for oncogenic val12 variant of human c-Ki-ras-2 4B was obtained from the plasmid pSW11-1 (ATCC). This was then subcloned into the polylinker of a suitable expression vector e.g. pIC147. The Kras was obtained after expression in the E. coli strain, BL21. […]
Assays were performed in 96 well plates as follows: 10 μl of test compound solution was added to each well. […] Precipitated protein was then collected onto glass fibre filter mats (B) using a Tomtec™ cell harvester and tritiated label was measured in a Wallac™1204 Betaplate scintillation counter. […]

Row | IC50 [1] | melting point | SMILES
1 | ~1 nM | – | CSCC[C@H](NC(=O)c1ccc(COC(Cn2ccnc2)c2ccc(F)cc2)cc1-c1ccc(F)cc1)C(=O)O (stereo partly drawn) [Example 2, (2S)-2-{2-(4-fluorophenyl)-4-[2-(imidazol-1-yl)-1-(4-fluorophenyl)ethoxymethyl]benzoylamino]-4-methylsulfanylbutyric acid]
2 | – | 50 to 53 °C | CSCC[C@H](NC(=O)c1ccc(COC(Cn2ccnc2)c2nccs2)cc1-c1ccc(F)cc1)C(=O)OC(C)(C)C (stereo partly drawn) [Example 16, Tert-butyl (2S)-2-{2-(4-fluorophenyl)-4-[1-(thiazol-2-yl)-2-(imidazol-1-yl)ethoxymethyl]benzoylamino}-4-methylsulfanylbutyrate]
